Data: patent US10889584B2, “Bicyclic bis-heteroaryl derivatives as modulators of protein aggregation” (UCB Biopharma SRL, priority 2017, dated 2021)

Target: T1, α-synuclein peptide fragments (Peptide 4F, CTGFVKKDQLGK) (Homo sapiens, UniProt P37840)
T1 construct: purchased American Peptide
Assay: In-vitro fluorescence polarization assay with alpha-synuclein peptide fragment (4F)
Assay type: biochemical
Conditions: peptide 4F 100 nM, 120 min at room temperature, compound 33.3 to 0.015 microM, 50 mM HEPES pH 7.4, 50 mM NaCl, read-out: IC50 (inhibition of self-aggregation of α-synuclein peptide fragment 4F)
Method: Biological Example 1: In-Vitro Fluorescence Polarization Assay with Alpha-Synuclein Peptide Fragment (4F)
The fluorescence polarization assay tests the ability of compounds to inhibit the self-aggregation of α-synuclein peptide fragments. Peptides were incubated for 120 min at room temperature in the presence or absence of test compounds (compound concentrations were 33.3 to 0.015 microM). Samples were read on a Beckman Coulter DTX 880 plate reader in fluorescence polarization mode using excitation at 485 nm and emission at 520 nm. Data was analyzed using a four-parameter logistic fit (XLFit, IDBS Software). Peptide 4F (CTGFVKKDQLGK (SEQ ID NO: 1)) was prepared by American Peptide. Fresh peptide samples were reconstituted in purified water at 5 mM and diluted into 50 mM HEPES pH 7.4 with 50 mM NaCl to 100 nM final concentration. Solid compounds were dissolved in DMSO (10 mM), and then diluted serially in DMSO (300×) followed by dilution in buffer (1×) to provide solutions with a consistent final DMSO concentration of 0.33%.

Structure (SMILES)	IC50 [nM]
CCCCC(Cc1c[nH]c2ccccc12)NC(=O)c1cnc(N2Cc3cn[nH]c3C2)s1 (centres unmarked) [Example 1, 2-(4,6-dihydro-1H-pyrrolo[3,4-c]pyrazol-5-yl)-N-[1-(1H-indol-3-ylmethyl)pentyl]thiazole-5-carboxamide]	2400
CCCCC(Cc1c[nH]c2ccccc12)NC(=O)c1cnc(N2CCn3cnnc3C2)s1 (centres unmarked) [Example 2, 2-(6,8-dihydro-5H-[1,2,4]triazolo[4,3-a]pyrazin-7-yl)-N-[1-(1H-indol-3-ylmethyl)pentyl]thiazole-5-carboxamide]	2300
CCCCC(Cc1c[nH]c2ccccc12)NC(=O)c1cnc(N2CCc3[nH]ncc3C2)s1 (centres unmarked) [Example 3, N-[1-(1H-indol-3-ylmethyl)pentyl]-2-(1,4,6,7-tetrahydropyrazolo[4,3-c]pyridin-5-yl)thiazole-5-carboxamide]	2200
CCCCC(Cc1c[nH]c2ccccc12)NC(=O)c1cnc(N2CCn3nc(C)cc3C2)s1 (centres unmarked) [Example 4, N-[1-(1H-indol-3-ylmethyl)pentyl]-2-(2-methyl-6,7-dihydro-4H-pyrazolo[1,5-a]pyrazin-5-yl)thiazole-5-carboxamide]	1400
CCCCC(Cc1c[nH]c2ccccc12)NC(=O)c1cnc(N2Cc3cnn(C)c3C2)s1 (centres unmarked) [Example 5, N-[1-(1H-indol-3-ylmethyl)pentyl]-2-(1-methyl-4,6-dihydropyrrolo[3,4-c]pyrazol-5-yl)thiazole-5-carboxamide]	2100
CCCCC(Cc1c[nH]c2ccccc12)NC(=O)c1cnc(N2CCn3nncc3C2)s1 (centres unmarked) [Example 6, 2-(6,7-dihydro-4H-triazolo[1,5-a]pyrazin-5-yl)-N-[1-(1H-indol-3-ylmethyl)pentyl]thiazole-5-carboxamide]	2600
CCCCC(Cc1c[nH]c2ccccc12)NC(=O)c1cnc(N2CCn3ncnc3C2)s1 (centres unmarked) [Example 7, 2-(6,8-dihydro-5H-[1,2,4]triazolo[1,5-a]pyrazin-7-yl)-N-[1-(1H-indol-3-ylmethyl)pentyl]thiazole-5-carboxamide]	2200
CCCCC(Cc1c[nH]c2ccccc12)NC(=O)c1cnc(N2CCn3nc(C)nc3C2)s1 (centres unmarked) [Example 8, N-[1-(1H-indol-3-ylmethyl)pentyl]-2-(2-methyl-6,8-dihydro-5H-[1,2,4]triazolo[1,5-a]pyrazin-7-yl)thiazole-5-carboxamide]	1600
CCCCC(Cc1c[nH]c2ccccc12)NC(=O)c1cnc(N2CCn3cncc3C2)s1 (centres unmarked) [Example 9, 2-(6,8-dihydro-5H-imidazo[1,5-a]pyrazin-7-yl)-N-[1-(1H-indol-3-ylmethyl)pentyl]thiazole-5-carboxamide]	1500
CCCCC(Cc1c[nH]c2ccccc12)NC(=O)c1cnc(N2CCc3onc(C)c3C2)s1 (centres unmarked) [Example 10, N-[1-(1H-indol-3-ylmethyl)pentyl]-2-(3-methyl-6,7-dihydro-4H-isoxazolo[4,5-c]pyridin-5-yl)thiazole-5-carboxamide]	840
CCCCC(Cc1c[nH]c2ccccc12)NC(=O)c1cnc(N2CCc3onc(C(F)(F)F)c3C2)s1 (centres unmarked) [Example 11, N-[1-(1H-indol-3-ylmethyl)pentyl]-2-[3-(trifluoromethyl)-6,7-dihydro-4H-isoxazolo[4,5-c]pyridin-5-yl]thiazole-5-carboxamide]	800
CCCCC(Cc1c[nH]c2ccccc12)NC(=O)c1cnc(N2CCc3noc(C(F)(F)F)c3C2)s1 (centres unmarked) [Example 12, N-[1-(1H-indol-3-ylmethyl)pentyl]-2-[3-(trifluoromethyl)-6,7-dihydro-4H-isoxazolo[4,3-c]pyridin-5-yl]thiazole-5-carboxamide]	900
CCCCC(Cc1c[nH]c2ccccc12)NC(=O)c1cnc(N2CCn3c(cc(C(F)(F)F)cc3=O)C2)s1 (centres unmarked) [Example 13, N-[1-(1H-indol-3-ylmethyl)pentyl]-2-[6-oxo-8-(trifluoromethyl)-3,4-dihydro-1H-pyrido[1,2-a]pyrazin-2-yl]thiazole-5-carboxamide]	1400
CCCCC(Cc1c[nH]c2ccccc12)NC(=O)c1cnc(N2CCn3c(C)nnc3C2)s1 (centres unmarked) [Example 14, N-[1-(1H-indol-3-ylmethyl)pentyl]-2-(3-methyl-6,8-dihydro-5H-[1,2,4]triazolo[4,3-a]pyrazin-7-yl)thiazole-5-carboxamide]	1700
CCCCC(Cc1c[nH]c2ccccc12)NC(=O)c1cnc(N2CCc3oncc3C2)s1 (centres unmarked) [Example 15, 2-(6,7-dihydro-4H-isoxazolo[4,5-c]pyridin-5-yl)-N-[1-(1H-indol-3-ylmethyl)pentyl]thiazole-5-carboxamide]	1300
CCCCC(Cc1c[nH]c2ccccc12)NC(=O)c1cnc(N2CCc3c(cnn3C)C2)s1 (centres unmarked) [Example 16, N-[1-(1H-indol-3-ylmethyl)pentyl]-2-(1-methyl-6,7-dihydro-4H-pyrazolo[4,3-c]pyridin-5-yl)thiazole-5-carboxamide]	1000
CCCCC(Cc1c[nH]c2ccccc12)NC(=O)c1cnc(N2CCn3ccnc3C2)s1 (centres unmarked) [Example 17, 2-(6,8-dihydro-5H-imidazo[1,2-a]pyrazin-7-yl)-N-[1-(1H-indol-3-ylmethyl)pentyl]thiazole-5-carboxamide]	1600
CCCCC(Cc1c[nH]c2ccccc12)NC(=O)c1cnc(N2CCn3c(nnc3C(F)(F)F)C2)s1 (centres unmarked) [Example 18, N-[1-(1H-indol-3-ylmethyl)pentyl]-2-[3-(trifluoromethyl)-6,8-dihydro-5H-[1,2,4]triazolo[4,3-a]pyrazin-7-yl]thiazole-5-carboxamide]	1200
CCCCC(Cc1c[nH]c2ccccc12)NC(=O)c1cnc(N2CCn3nccc3C2)s1 (centres unmarked) [Example 19, 2-(6,7-dihydro-4H-pyrazolo[1,5-a]pyrazin-5-yl)-N-[1-(1H-indol-3-ylmethyl)pentyl]thiazole-5-carboxamide]	1300
CCCCC(Cc1c[nH]c2ccccc12)NC(=O)c1cnc(N2CCc3nn(C)cc3C2)s1 (centres unmarked) [Example 20, N-[1-(1H-indol-3-ylmethyl)pentyl]-2-(2-methyl-6,7-dihydro-4H-pyrazolo[4,3-c]pyridin-5-yl)thiazole-5-carboxamide]	1200
